Measured values from US20060235076A1, “Medicinal composition for treating infection with drug-resistant staphylococcus aureus” (priority 2003, published 2006).
In brackets after ≈: the same amount, converted by molar mass. Like-named read-outs stand apart in the source and are kept apart here.

Experiments:
[1] = tested on: MRSA COL and MRSA Strain No. 5; assay: Potentiating effect of various gallates for antibacterial activity of oxacillin (MIC by broth microdilution method and FIC); type: cell-based, Staphylococcus aureus; conditions: for antibacterial activity when used alone: COL Strain and Strain No. 5; for FIC value: combination with oxacillin
Method: According to the broth microdilution method defined by Japan Society of Chemotherapy, MIC was determined. CAMHA was prepared by adding 50 mg/l of Ca-ion, 25 mg/l of Mg-ion, and 2% of NaCl to MHB (Mueller-Hinton Broth), and it was used as a medium for use in the measurement of sensitivity. In 96-well microplates 100 μl of the medium for use in the measurement of sensitivity containing drugs was dispensed. The bacterial liquid was incubated at 37° C. overnight, diluted with saline and added to the plate so that the final concentration of the bacteria was 5×10^5 CFU/well. […] FIC (fractional inhibitory concentration) was calculated from the result and the potency of the effect of the combination use was evaluated.

MRSA and MSSA = assay: Antibacterial activity of gallic acid, various gallates and multivalent phenol derivatives alone (agar plate dilution method, MIC); type: cell-based, Staphylococcus aureus; conditions: Staphylococcus aureus
Procedure, shortened: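 Each compound tested alone. Bacteria cultured overnight at 37 °C, then brought to 10^6 CFU/ml in saline and tested on MHA II with added Ca-ion (50 mg/l), Mg-ion (25 mg/l) and 2% NaCl. MIC read by the Japan Society of Chemotherapy agar dilution method.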

[2] = ATCC 6538 / MRSA / MSSA, read-out: MIC alone
[3] = MSSA #1003, read-out: MIC alone
[4] = MSSA #1010, read-out: MIC alone
[5] = MSSA #1020, read-out: MIC alone
[6] = MSSA #1023, read-out: MIC alone
[7] = MSSA #1029, read-out: MIC alone
[8] = MSSA #1032, read-out: MIC alone

CCCCCCCCCCCOC(=O)c1cc(O)c(O)c(O)c1 [Undecyl gallate, n-undecyl gallate]
antibacterial activity when used alone [1]: most potent | FIC value ([1]; MRSA COL): 0.313 | FIC value ([1]; MRSA Strain No. 5): 0.251 | MIC50 (MRSA and MSSA): 31.3 µg/mL (≈ 96.5 µM) | MIC (MRSA and MSSA; ATCC 6538 / MRSA / MSSA): 31.3 µg/mL (≈ 96.5 µM) | MIC (MRSA and MSSA; COL, compound alone, read-out: MIC): 31.3 µg/mL (≈ 96.5 µM) | MIC (MRSA and MSSA; MRSA #1, compound alone, read-out: MIC): 31.3 µg/mL (≈ 96.5 µM) | MIC (MRSA and MSSA; MRSA #2, compound alone, read-out: MIC): 31.3 µg/mL (≈ 96.5 µM) | MIC (MRSA and MSSA; MRSA #3, compound alone, read-out: MIC): 31.3 µg/mL (≈ 96.5 µM) | MIC (MRSA and MSSA; MRSA #4, compound alone, read-out: MIC): 31.3 µg/mL (≈ 96.5 µM) | MIC (MRSA and MSSA; MRSA #5, compound alone, read-out: MIC): 31.3 µg/mL (≈ 96.5 µM) | MIC (MRSA and MSSA; MRSA #6, compound alone, read-out: MIC): 31.3 µg/mL (≈ 96.5 µM) | MIC (MRSA and MSSA; MRSA #7, compound alone, read-out: MIC): 31.3 µg/mL (≈ 96.5 µM) | MIC (MRSA and MSSA; MRSA #8, compound alone, read-out: MIC): 31.3 µg/mL (≈ 96.5 µM) | MIC (MRSA and MSSA; MRSA #9, compound alone, read-out: MIC): 31.3 µg/mL (≈ 96.5 µM) | MIC (MRSA and MSSA; MRSA #10, compound alone, read-out: MIC): 31.3 µg/mL (≈ 96.5 µM) | MIC (MRSA and MSSA; MRSA #12, compound alone, read-out: MIC): 31.3 µg/mL (≈ 96.5 µM) | MIC (MRSA and MSSA; MRSA #16, compound alone, read-out: MIC): 31.3 µg/mL (≈ 96.5 µM) | MIC (MRSA and MSSA; MRSA #17, compound alone, read-out: MIC): 31.3 µg/mL (≈ 96.5 µM) | MIC (MRSA and MSSA; MRSA #18, compound alone, read-out: MIC): 31.3 µg/mL (≈ 96.5 µM) | MIC (MRSA and MSSA; MRSA #20, compound alone, read-out: MIC): 31.3 µg/mL (≈ 96.5 µM) | MIC (MRSA and MSSA; MRSA #21, compound alone, read-out: MIC): 31.3 µg/mL (≈ 96.5 µM) | MIC (MRSA and MSSA; MRSA #22, compound alone, read-out: MIC): 31.3 µg/mL (≈ 96.5 µM) | MIC (MRSA and MSSA; MRSA #24, compound alone, read-out: MIC): 31.3 µg/mL (≈ 96.5 µM) | MIC (MRSA and MSSA; MSSA #1003, compound alone, read-out: MIC): 31.3 µg/mL (≈ 96.5 µM) | MIC (MRSA and MSSA; MSSA #1010, compound alone, read-out: MIC): 31.3 µg/mL (≈ 96.5 µM) | MIC (MRSA and MSSA; MSSA #1020, compound alone, read-out: MIC): 31.3 µg/mL (≈ 96.5 µM) | MIC (MRSA and MSSA; MSSA #1023, compound alone, read-out: MIC): 31.3 µg/mL (≈ 96.5 µM) | MIC (MRSA and MSSA; MSSA #1029, compound alone, read-out: MIC): 31.3 µg/mL (≈ 96.5 µM) | MIC (MRSA and MSSA; MSSA #1032, compound alone, read-out: MIC): 31.3 µg/mL (≈ 96.5 µM)

CCCCCCCCCCOC(=O)c1cc(O)c(O)c(O)c1 [Decyl gallate, n-decyl gallate]
antibacterial activity when used alone [1]: most potent | FIC value ([1]; MRSA COL): 0.258 | FIC value ([1]; MRSA Strain No. 5): 0.508 | MIC50 (MRSA and MSSA): 15.7 µg/mL (≈ 50.6 µM) | MIC (MRSA and MSSA; [2]): 15.7 µg/mL (≈ 50.6 µM) | MIC (MRSA and MSSA; COL, read-out: MIC alone): 15.7 µg/mL (≈ 50.6 µM) | MIC (MRSA and MSSA; MRSA #1, read-out: MIC alone): 15.7 µg/mL (≈ 50.6 µM) | MIC (MRSA and MSSA; MRSA #2, read-out: MIC alone): 15.7 µg/mL (≈ 50.6 µM) | MIC (MRSA and MSSA; MRSA #3, read-out: MIC alone): 15.7 µg/mL (≈ 50.6 µM) | MIC (MRSA and MSSA; MRSA #4, read-out: MIC alone): 15.7 µg/mL (≈ 50.6 µM) | MIC (MRSA and MSSA; MRSA #5, read-out: MIC alone): 15.7 µg/mL (≈ 50.6 µM) | MIC (MRSA and MSSA; MRSA #6, read-out: MIC alone): 15.7 µg/mL (≈ 50.6 µM) | MIC (MRSA and MSSA; MRSA #7, read-out: MIC alone): 15.7 µg/mL (≈ 50.6 µM) | MIC (MRSA and MSSA; MRSA #8, read-out: MIC alone): 15.7 µg/mL (≈ 50.6 µM) | MIC (MRSA and MSSA; MRSA #9, read-out: MIC alone): 15.7 µg/mL (≈ 50.6 µM) | MIC (MRSA and MSSA; MRSA #10, read-out: MIC alone): 15.7 µg/mL (≈ 50.6 µM) | MIC (MRSA and MSSA; MRSA #12, read-out: MIC alone): 15.7 µg/mL (≈ 50.6 µM) | MIC (MRSA and MSSA; MRSA #16, read-out: MIC alone): 15.7 µg/mL (≈ 50.6 µM) | MIC (MRSA and MSSA; MRSA #17, read-out: MIC alone): 15.7 µg/mL (≈ 50.6 µM) | MIC (MRSA and MSSA; MRSA #18, read-out: MIC alone): 15.7 µg/mL (≈ 50.6 µM) | MIC (MRSA and MSSA; MRSA #20, read-out: MIC alone): 15.7 µg/mL (≈ 50.6 µM) | MIC (MRSA and MSSA; MRSA #21, read-out: MIC alone): 31.3 µg/mL (≈ 101 µM) | MIC (MRSA and MSSA; MRSA #22, read-out: MIC alone): 31.3 µg/mL (≈ 101 µM) | MIC (MRSA and MSSA; MRSA #24, read-out: MIC alone): 31.3 µg/mL (≈ 101 µM) | MIC (MRSA and MSSA; MRSA and MSSR, read-out: MIC alone): 15.7 µg/mL (≈ 50.6 µM) | MIC (MRSA and MSSA; [3]): 15.7 µg/mL (≈ 50.6 µM) | MIC (MRSA and MSSA; [4]): 15.7 µg/mL (≈ 50.6 µM) | MIC (MRSA and MSSA; [5]): 15.7 µg/mL (≈ 50.6 µM) | MIC (MRSA and MSSA; [6]): 15.7 µg/mL (≈ 50.6 µM) | MIC (MRSA and MSSA; [7]): 15.7 µg/mL (≈ 50.6 µM) | MIC (MRSA and MSSA; [8]): 15.7 µg/mL (≈ 50.6 µM)

CCCCCCCOC(=O)c1cc(O)c(O)c(O)c1 [Heptyl gallate, n-heptyl gallate]
FIC value ([1]; MRSA COL): 0.563 | FIC value ([1]; MRSA Strain No. 5): 0.75 | MIC50 (MRSA and MSSA): 31.3 µg/mL (≈ 117 µM) | MIC (MRSA and MSSA; [2]): 31.3 µg/mL (≈ 117 µM) | MIC (MRSA and MSSA; COL, read-out: MIC alone): 31.3 µg/mL (≈ 117 µM) | MIC (MRSA and MSSA; MRSA #1, read-out: MIC alone): 31.3 µg/mL (≈ 117 µM) | MIC (MRSA and MSSA; MRSA #2, read-out: MIC alone): 31.3 µg/mL (≈ 117 µM) | MIC (MRSA and MSSA; MRSA #3, read-out: MIC alone): 31.3 µg/mL (≈ 117 µM) | MIC (MRSA and MSSA; MRSA #4, read-out: MIC alone): 31.3 µg/mL (≈ 117 µM) | MIC (MRSA and MSSA; MRSA #5, read-out: MIC alone): 31.3 µg/mL (≈ 117 µM) | MIC (MRSA and MSSA; MRSA #6, read-out: MIC alone): 31.3 µg/mL (≈ 117 µM) | MIC (MRSA and MSSA; MRSA #7, read-out: MIC alone): 31.3 µg/mL (≈ 117 µM) | MIC (MRSA and MSSA; MRSA #8, read-out: MIC alone): 31.3 µg/mL (≈ 117 µM) | MIC (MRSA and MSSA; MRSA #9, read-out: MIC alone): 31.3 µg/mL (≈ 117 µM) | MIC (MRSA and MSSA; MRSA #10, read-out: MIC alone): 31.3 µg/mL (≈ 117 µM) | MIC (MRSA and MSSA; MRSA #12, read-out: MIC alone): 31.3 µg/mL (≈ 117 µM) | MIC (MRSA and MSSA; MRSA #16, read-out: MIC alone): 31.3 µg/mL (≈ 117 µM) | MIC (MRSA and MSSA; MRSA #17, read-out: MIC alone): 31.3 µg/mL (≈ 117 µM) | MIC (MRSA and MSSA; MRSA #18, read-out: MIC alone): 31.3 µg/mL (≈ 117 µM) | MIC (MRSA and MSSA; MRSA #20, read-out: MIC alone): 31.3 µg/mL (≈ 117 µM) | MIC (MRSA and MSSA; MRSA #21, read-out: MIC alone): 31.3 µg/mL (≈ 117 µM) | MIC (MRSA and MSSA; MRSA #22, read-out: MIC alone): 31.3 µg/mL (≈ 117 µM) | MIC (MRSA and MSSA; MRSA #24, read-out: MIC alone): 31.3 µg/mL (≈ 117 µM) | MIC (MRSA and MSSA; [3]): 31.3 µg/mL (≈ 117 µM) | MIC (MRSA and MSSA; [4]): 31.3 µg/mL (≈ 117 µM) | MIC (MRSA and MSSA; [5]): 31.3 µg/mL (≈ 117 µM) | MIC (MRSA and MSSA; [6]): 31.3 µg/mL (≈ 117 µM) | MIC (MRSA and MSSA; [7]): 31.3 µg/mL (≈ 117 µM) | MIC (MRSA and MSSA; [8]): 31.3 µg/mL (≈ 117 µM)
